Here are results for three molecules from patent publication US20260345728A1, “COMBINATION THERAPY WITH BRAF INHIBITORS FOR THE TREATMENT OF CANCER” (FUNDACIÓ PRIVADA INSTITUT D'INVESTIGACIÓ ONCOLÒGICA DE VALL …, priority 2023, published 2026).

In data set [1] the test system is wild type and mutant BRAF metastatic melanoma. Particulars: cited from earlier work.
The test system of another data set is mutant BRAF. The note with it: cited from earlier work.
The test system of a further data set is late-stage melanoma. Particulars: cited from earlier work.
The next data set relates to melanoma SkMel37 cells. Nature of the data set: AlamarBlue cell viability with ZIP synergy scoring (SynergyFinder 3.0), SkMel37. In kind it is cell-based, human. The note with it: single agent; 5 days; FIG. 1. As for the experimental part: A human melanoma cell line with mutations in BRAF (BRAF^V600E) (SkMel37) was used. Cells were plated in 96 well plates and treated on the following day with increasing concentrations of dabrafenib and Omomyc, alone or in combination. After 5 days of treatment, media was removed and AlamarBlue™ Cell Viability Reagent was added to each well, incubated for 3 hours until metabolized, and fluorescence was read with a microplate reader using an excitation between 530-560 and an emission at 590 nm.
Synergy was evaluated using SynergyFinder 3.0 web application derived from lanevsky A et al. Nucleic Acids Res. 2022; 50(W1):W739-W743.
Synergy scores can be interpreted as the average excess response due to drug interactions. Synergy scores close to 0 give limited confidence in synergy or antagonism. So, when the synergy scores are: less than −10, the interaction between two drugs is likely to be antagonistic. From −10 to 10, the interaction between two drugs is likely to be additive. Greater than 10, the interaction between two drugs is likely to be synergistic.
(Resazurin is reduced to fluorescent resorufin, in cell work by metabolically active cells.)

Regarding `CNC(=O)c1cc(Oc2ccc(NC(=O)Nc3ccc(Cl)c(C(F)(F)F)c3)cc2)ccn1` [sorafenib], the off-target side-effects result in data set [1] (human, in vivo) is “intolerable off-target side-effects”. Also, the clinical activity entry in data set [1] (monotherapy or in combination with dacarbazine) is given as “failed to demonstrate any activity”. In the data set with mutant BRAF, the “selectivity for mutant BRAF” value is reported as “unable to selectively target mutant BRAF”.
For the molecule `CCCS(=O)(=O)Nc1ccc(F)c(C(=O)c2c[nH]c3ncc(-c4ccc(Cl)cc4)cc23)c1F` [vemurafenib], in the data set on late-stage melanoma, the “tumors that develop resistance to the treatment” value is recorded as 20%.
Turning to `CC(C)(C)c1nc(-c2cccc(NS(=O)(=O)c3c(F)cccc3F)c2F)c(-c2ccnc(N)n2)s1` [dabrafenib], the “tumors that develop resistance to the treatment” value in the data set with late-stage melanoma was 20%. In the data set with melanoma SkMel37 cells, the “reduction of viability of the cells” value is listed as “significantly reduces the viability of the cells”.
